Tests used:
[1] = system: chronically, mildly stressed rats; assay: Chronic mild stress (CMS) model of depression, sucrose consumption; type: in vivo, Male Wistar rats; conditions: stressed rats, n=8, alone or with pyridoxine 10 mg/kg
Excerpt: (§1) Chronic mild stress (CMS), a well-validated preclinical model of depression (Willner, 1997, Validity, reliability and utility of the chronic mild stress model of depression: a 10-year review and evaluation. Psychopharmacology, 134, 319-329, […] et al., 2002, Preclinical models: status of basic research in depression, Soc. Biol. Psych., 52, 503-528), was used to study the effects of combined therapy of SRI with pyridoxine on responder rate and the time to achieve a full drug response ('onset of action') as compared to treatment with SRI alone. Citalopram, as an example of a SRI, was combined with either pyridoxine or vehicle and administered to chronically, mildly stressed rats during a 5-week treatment schedule. Consumption of sucrose solution after fasting, which a commonly accepted measure of anhedonia, i.e. inability to experience pleasure, was chosen for readout, since this is a core symptom of human depressive disorders. Male Wistar rats were brought into the laboratory two months before the start of the experiment for acclimatization and training (see below). During this period, the animals were singly housed and were maintained on a 12-h light/dark cycle (lights on at 08.00) at a constant temperature of 22±2° C. and humidity (55±5%). Food pellets (containing an optimal level of 1 mg/kg pyridoxine) and water were freely available, with the exception of the deprivation procedure as described below. During a period of 5 weeks, rats were trained to consume a 1% sucrose solution. Training consisted of ten 1-h baseline tests (twice weekly) in which sucrose was presented, in the home cage, following 14 h of food and water deprivation. Sucrose intake was measured by weighing pre-weighed bottles containing the sucrose solution, at the end of the test. Subsequently, sucrose consumption was monitored, under similar conditions, at weekly intervals throughout the whole experiment. […] Mean values in sucrose consumption during stress and subsequently the 5 weeks of vehicle and drug treatment in control and stressed animals were calculated. […]

[2] = as above; type: in vivo, Male Wistar rats; conditions: unstressed control rats; citalopram 2.5 or 5.0 mg/kg, alone or with pyridoxine 10 mg/kg, i.p. daily, 5 weeks
Excerpt: as §1

## CN(C)CCCC1(c2ccc(F)cc2)OCc2cc(C#N)ccc21 (stereo not drawn) [citalopram]
[1]; citalopram 2.5 mg/kg i.p. daily for 5 weeks
  responder rate (rats exhibiting increased sucrose intake): 50%
[1]; citalopram 5.0 mg/kg i.p. daily for 5 weeks
  responder rate (rats exhibiting increased sucrose intake): 62.5%
[2]
  effect on sucrose intake in control animals: no significant effect

Reference: patent US20060094765A1, “Use of a sri and vitamin b6 for the treatment of neurological and mental disorders” (Pantarhei Bioscience B.V., priority 2002, published 2006)
